Measured values reported in patent US8663647B2, “Epitope peptides derived from vascular endothelial growth factor receptor 1 and vaccines containing these peptides” (Oncotherapy Science, Inc., priority 2005, dated 2014).
Entries after “also recorded” stand apart in the source; their conditions may differ.

Tests used:
[1] = system: T2 cells and A24-LCL pulsed with candidate peptides; experiment: CTL induction with peptide-pulsed DCs and 4-h 51Cr-release cytotoxicity assay on peptide-pulsed target cells; format: cell-based; conditions: human PBMC-derived DCs pulsed with peptide, autologous CD8+ T cells
Source text: Monocyte-derived dendritic cells (DCs) were used to induce CTL responses against peptides presented on HLA as previously described (Nukaya et al., (1999) Int. J. Cancer. 80: 92-7, Tsai et al., (1997) J. Immunol. 158: 1796-802, Nakahara et al., (2003) Cancer Res. 63: 4112-8). In brief, the PBMCs were obtained from the healthy volunteers with corresponding HLAs and cultured in the presence of GM-CSF (provided by Kirin Brewery Company, Japan) and IL-4 (Genzyme/Techne, Minneapolis). After culture for 5 days, OK-432 (Chugai Pharmaceutical Corporation, Japan) was added to the culture to obtain mature DCs (Nakahara et al., (2003) Cancer Res. 63: 4112-8). On day 7, generated mature DCs were pulsed with each peptide for T cell stimulation. Using these peptide-pulsed DCs each time, the autologous CD8+ T cells were stimulated for three times on day 0, 7 and 14, and then the resultant lymphoid cells were tested for their cytotoxic activities on day 21. To generate CTL clones, established CTL lines were plated in 96-well plates at 0.3, 1, and 3 cells per well with allogenic PBMCs and […] as stimulator cells. Cytotoxic activities of resulting CTL clones were tested on the 14th day. Cytotoxic activities were measured using a standard 4-h ^51Cr-release assay. The T2 cells and A24-LCL were used as target cells pulsed with candidate peptides. Percent specific lysis was calculated as follows: % Specific lysis=[(experimental release−spontaneous release)/(maximum release−spontaneous release)]×100. Immunogenicity of Epitope Peptides in A2/Kb TGM

[2] = system: IFN-γ production of CTLs against T2 cells pulsed with peptides; experiment: IFN-γ ELISPOT assay, immunogenicity of epitope peptides in A2/Kb TGM; format: in vivo, A2/Kb transgenic mice; conditions: IFA-conjugated peptide injected day 0 and day 11; splenocytes day 21; E/T ratio x20
Experimental: For priming the peptide-specific CTLs, immunization was given using 200 μl of vaccine mixture, which contains 100 μg of an HLA-A2 restricted peptide and 100 μl of IFA per mouse. The vaccine was injected intradermally in the right flank for the first immunization on day 0 and in the other flank for the second on day 11. On day 21, splenocytes of the vaccinated mice were used as the responder cells, and T2 cells pulsed with or without peptides were used as the stimulator cells for ELISPOT assay.
At first, we evaluated the immunogenicity of the epitope peptides for A2/Kb TGM to examine the specific production of IFN-γ of the CTLs induced with these peptides by ELISPOT assay (FIG. 4). IFA-conjugated peptide was injected s.c. into A2/Kb TGM on day 0 and day 11. On day 21, splenocytes of the vaccinated mice were harvested and used as the responder cells, and T2 cells pulsed with or without peptides were used as the stimulator cells for ELISPOT assay. […] In this ELISPOT assay using A2/Kb TGM system, positive results were shown for the epitope peptides identified using human PBMCs.

[3] = system: angiogenesis induced by MC38 cells; experiment: Dorsal air sac (DAS) in vivo angiogenesis assay; parameters: species or system A2/Kb transgenic mice; conditions: vaccinated twice with IFA-conjugated peptide, MC38 chamber, semiquantitative
Source text: We examined the effects of peptide vaccination using dorsal air sac (DAS) assay which was designed to measure in vivo angiogenesis induced by tumor cells as previously described (Oikawa et al., (1997) Anticancer Res. 17: 1881-6). In brief, the A2/Kb TGM were vaccinated twice with 1-week interval in the left flank using IFA conjugated corresponding peptides as previously described with some modification (Schuler et al., (1997) J. Exp. Med. 186: 1183-7, Song et al., (1997) J. Exp. Med. 186: 1247-56, Specht et al., (1997) J. Exp. Med. 186: 1213-21). Millipore chamber (Millipore Corporation, Bedford, Mass.) was filled with PBS containing MC38 cells (1×10^6 cells) and implanted in the dorsum of anesthetized mice on day 0. The implanted chambers were removed from s.c. fascia on day 6 and then black rings were placed at the sites exposed to a direct contact with the chamber. The angiogenic response was assessed with photographs taken using a dissecting microscope. The extent of angiogenesis was determined with the number of newly formed blood vessels of >3 mm in length and scored semi quantitatively using an index ranging from 0 (none) to 5 (many).

MCA205 cells = experiment: In vivo anti-tumor effects, therapeutic model; parameters: species or system A2/Kb transgenic mice; conditions: MCA205 i.d. day 0; vaccination with IFA-conjugated peptide after tumor challenge
Experimental: We examined the anti-tumor effects of this vaccination with a therapeutic model. The 1×10^5 MCA205 cells or the 5×10^5 B16 cells were injected i.d. in the right flank on day 0, and vaccination was performed on day 4 and day 14 using IFA conjugated corresponding peptides. […] The MCA205, a methylcholanthrene-induced murine fibrosarcoma cell line were injected i.d. into A2/Kb TGM on day 0, and vaccination was performed on these mice on 4 and 14 days after the tumor challenge using VEGFR1-1087, -770, -417 peptides conjugated with IFA (FIG. 6).

Row | Sequence | CTL inducibility [1] | Specific production of IFN-γ for the corresponding peptide [2] | Inhibition of tumor-induced angiogenesis (newly formed vessels) ([3]; listed as VEGFR1-417) | Inhibition of tumor-induced angiogenesis (newly formed vessels) ([3]; listed as VEGFR1-770) | Suppression of tumor growth (MCA205 cells) | Inhibition of tumor-induced angiogenesis (newly formed vessels) ([3]; listed as VEGFR1-1087)
1 | NLTATLIVNV (synthetic vascular endothelial growth factor receptor 1 (VEGFR1, Flt-1) epitope peptide binding HLA-A*0201 with high cytotoxic T lymphocyte (CTL) inducibility) [SEQ ID NO: 13] | particularly high CTL inducibility | Specific production of IFN-γ for the corresponding peptide was observed | significant inhibition on angiogenesis was observed; also recorded: Significant inhibition of tumor-induced angiogenesis was observed |  |  | 
2 | SYGVLLWEIF (synthetic vascular endothelial growth factor receptor 1 (VEGFR1, Flt-1) epitope peptide binding HLA-A*2402 with high cytotoxic T lymphocyte (CTL) inducibility) [SEQ ID NO: 32] | particularly high CTL inducibility |  |  |  |  | 
3 | TLFWLLLTL (synthetic vascular endothelial growth factor receptor 1 (VEGFR1, Flt-1) epitope peptide binding HLA-A*0201 with high cytotoxic T lymphocyte (CTL) inducibility) [SEQ ID NO: 2] | particularly high CTL inducibility | Specific production of IFN-γ for the corresponding peptide was observed |  | significant inhibition on angiogenesis was observed; also recorded: Significant inhibition of tumor-induced angiogenesis was observed | Significant suppression of tumor growth was observed | 
4 | VLLWEIFSL (synthetic vascular endothelial growth factor receptor 1 (VEGFR1, Flt-1) epitope peptide binding HLA-A*0201 with high cytotoxic T lymphocyte (CTL) inducibility) [SEQ ID NO: 1] | particularly high CTL inducibility | Specific production of IFN-γ for the corresponding peptide was observed |  |  | Significant suppression of tumor growth was observed | significant inhibition on angiogenesis was observed; also recorded: Significant inhibition of tumor-induced angiogenesis was observed
